The text below walks through data of US20050256134A1, “Use of creatine analogues and creatine kinase modulators for the prevention and treatment of glucose metabolic disorders” (AVICENA GROUP, INC., priority 1995, published 2005).

In one data set the test system is rats. Particulars: intravenous; cited from earlier work.
For data set [1] the following is noted: in vivo; cited from earlier work.
The test system of data set [2] is female Fisher 344 rats bearing rat mammary adenocarcinoma 13762. Nature of the data set: Effect of creatine compounds on glucose levels in rats bearing tumors (i.v., days 4-8 and 14-18). Format: in vivo. The following applies: for Glucose Levels: i.v. days 4-8 and 14-18. Here is the method: Two creatine compounds, creatine phosphate and cyclocreatine, were injected intravenously into tumor bearing rats, and the level of glucose in the rats was monitored. Beta guanidino propionic acid, also was administered. […] There was no specific reason for using tumor bearing rats, except convenience because the antitumor activity of these compounds also was being studied. The presence of the tumors should not have any effect on the ability of these compounds to regulate glucose levels. The rats carrying the tumors were described by us previously (see, […] et al., Cancer Chemother. Pharmacol, 35: 411-416, 1995). The schedule and dose selected in these experiments was based on prior experience working with this class of compounds as anticancer or antiviral chemotherapeutic agents. The rat mammary adenocarcinoma 13762 was implanted in the female Fisher 344 rats on day zero. The creatine compounds were administered intravenously on days 4-8 and days 14-18. The amounts used were 1 gm/kg of cyclocreatine, 0.93 gm/kg for beta guanidino propionic acid, and 2.32 gm/kg for creatine phosphate. […] Plasma glucose levels were measured at around 11 a.m., by taking a drop of blood from the animals and testing glucose levels using a commercial kit ([…] bG, Boehringer Mannheim). For animals that were treated with drugs, the treatment was around 9 a.m., and bleeding was also at around 11 a.m. To examine more closely what occurred in the above two experiments, the average readings of glucose levels from experiments one and two were taken in the following time intervals post drug treatment: Days 2-3, Days 4-8, Days 8-12, Days 14-18, Day 15 and Days 19-22.

In data set [3] the test system is normal animals and a model for non-insulin dependent diabetes mellitus. Particulars: cited from earlier work.

Read-outs that look alike come from different tables or passages of the source.

For the compound `N=C(N)NCCC[C@H](N)C(=O)O` [Arginine], in the data set on rats, the Glucose Levels result is on record as “did not affect glucose levels” and the insulin release result is reported as “stimulated insulin release”.
As for Augmentin, in data set [1], the hypoglycemic effect entry is on record as “produced hypoglycemia”; the undesirable side effects result was “hypertension and circulatory collapse”.
With `N=C(N)NCCC(=O)O` [beta guanidino propionic acid], the Glucose Levels result in data set [2] (Example 1) is given as “Minimal changes in glucose levels”; in data set [2] (Example 2 (repeat)) it was “minimal effect”; with rats it was “did not affect glucose levels”; in data set [3] (large amounts for several weeks), “not to affect glucose levels”; in data set [3] (model for non-insulin dependent diabetes mellitus), “had an effect on glucose levels”; in data set [3] (normal animals) it was “not to affect glucose levels”. Moreover, in data set [2] (average of experiments one and two), the “effects on glucose level” value is reported as below 15%. The insulin release result in the data set with rats is recorded as “stimulated insulin release”.
